Test results published in patent US20250188032A1, “NITROGEN-CONTAINING HETEROCYCLIC COMPOUNDS AND USES THEREOF” (BNH RESEARCH CO., LTD., priority 2022, published 2025).

Experiments:
[1] = tested on: APP/PS1 mice sensory cerebral cortex; assay: TC potency and GABA/AMPA ratio in sensory cortex of Alzheimer's animal model; assay type: in vivo
Protocol: For intravenous injection, the tail vein injection method was used. […] In the drug injection test, the compound was administered once a day for about 11 to 13 days. 5 mice were used for the compound administration group and the control group, respectively.
For TC or hippocampus slice preparation. 9 to 10 weeks-old male C57BL/6J mice were anesthetized with isoflurane. Then, the brain was rapidly cooled via transcardial perfusion with ice-cold sucrose-artificial cerebrospinal fluid (aCSF). The brain was removed and placed in ice-cold sucrose aCSF. Paracoronal slices were prepared at an angle of 50° relative to the midline on a ramp at an angle of 10°. […]
For the minimal stimulation protocol (Potency), VB thalamic stimulation intensity was adjusted to find the lowest intensity that elicited a mixture of synaptic responses and failures. Failure rate was calculated as the number of failures/total number of trials. Potency was calculated as the mean EPSC peak amplitude excluding failures (see Chittajallu & Isaac, 2010, Emergence of cortical inhibition by coordinated sensory-driven plasticity at distinct synaptic loci, DOI: 10.1038/nn.2639; see Isaac et al., 1997, Silent Synapses during Development of Thalamocortical Inputs, https://doi.org/10.1016/S08966273((0)80267-6; and see Stevens & Wang, 1995, Facilitation and depression at single central synapses, DOI: 10.1016/08966273(95)90223-6). […]

[2] = tested on: GluN2B; assay: Western blot of GluN2B protein in cultured fetal cortical cells; assay type: cell-based, mice
Protocol: The amount of GluN2B reacted with the compound of the present disclosure was measured using Western blot. The fetal cerebral cortex was extracted from mice at 17 days of gestation, dissociated into single cells, cultured for 13 days, and treated with BnH drugs for 24 hours. The drug-treated cells were subjected to protein lysate preparation using RIPA protein lysis buffer containing protease and phosphatase inhibitors. The protein concentration was determined using a BCA protein assay kit (Pierce Biotechnology) using bovine serum albumin as a standard. Equal amounts of protein (20 μg per lane) were separated by electrophoresis on SDS-polyacrylamide gels at 90 V for 2 hours, then transferred from the SDS-polyacrylamide gel to PVDF membrane at 100 V for 1 hour. Then, primary reaction with GluN2B antibody (ab65783, Abcam) was performed at 4° C. for 1 day, washed three times at 10-minutes intervals with 1×PBT, and secondary reaction was performed with anti-mouse antibody (sc-2357, Santa Cruz) for 1 hour, followed by washing three times at 10-minutes intervals with 1×PBT. Western blotting was performed as described above to confirm GluN2B protein expression. Subsequently, each blot was re-probed using anti-β-actin antibody (sc-47778, Santa Cruz). Housekeeping protein β-actin was detected as a normalization control.
The increase and decrease of BnH12 series were confirmed by setting the vehicle to 1 (N for each group was 3 or more).
Using the experimental procedure described in Example 3, it was determined whether various BnH12 series compounds increase GluN2B expression, and the results are shown in Table 6. These in vitro experimental results are expressed as relative values to the group (vehicle) that was not treated with the compound, with the effect of the group set to 1.

In the case of `C[C@@H]1CC[C@H](C(=O)O)CN1C(=O)Cc1ccc(F)cc1Cl` [BnH12001 enantiomer (3S,6R, 98%<), (3S,6R)-1-(2-(2-chloro-4-fluorophenyl)acetyl)-6-methylpiperidine-3-carboxylic acid], the “Balance of excitation/inhibition (GABA/AMPA ratio)” value [1] is reported as “maintaining the balance of excitation/inhibition”, the “Excitatory TC synaptic potency (TC potency)” value [1] is reported as “increased the excitatory TC synaptic potency” and the “Effect on GluN2B expression compared to the vehicle” value ([2]; comment on Table 6) is reported as “excellent effects”. The “GluN2B expression, Western blot results, Mean” value ([2]; relative value, vehicle set to 1, treated for 24 hours, N 3 or more) was 1.548.
